Source: article PMC12087874, “Biaryl Phosphates and Phosphonates as Selective Inhibitors of the Transcription Factor STAT4” (Angewandte Chemie (International Ed. in English), 2025)

How the values were obtained:
STAT4 = molecular target: T1, STAT4 (Homo sapiens, UniProt Q14765); assay: Competitive fluorescence polarization (FP) assay, STAT4 SH2 domain; type: binding; conditions: for Ki / IC50: FP assay, mean ± SD, n = 3; for Ki: tracer 5-carboxyfluorescein-GpYLPQNID-OH, Ki derived from IC50, read-out: STAT4 K i
T1 sequence (Q14765 1-748): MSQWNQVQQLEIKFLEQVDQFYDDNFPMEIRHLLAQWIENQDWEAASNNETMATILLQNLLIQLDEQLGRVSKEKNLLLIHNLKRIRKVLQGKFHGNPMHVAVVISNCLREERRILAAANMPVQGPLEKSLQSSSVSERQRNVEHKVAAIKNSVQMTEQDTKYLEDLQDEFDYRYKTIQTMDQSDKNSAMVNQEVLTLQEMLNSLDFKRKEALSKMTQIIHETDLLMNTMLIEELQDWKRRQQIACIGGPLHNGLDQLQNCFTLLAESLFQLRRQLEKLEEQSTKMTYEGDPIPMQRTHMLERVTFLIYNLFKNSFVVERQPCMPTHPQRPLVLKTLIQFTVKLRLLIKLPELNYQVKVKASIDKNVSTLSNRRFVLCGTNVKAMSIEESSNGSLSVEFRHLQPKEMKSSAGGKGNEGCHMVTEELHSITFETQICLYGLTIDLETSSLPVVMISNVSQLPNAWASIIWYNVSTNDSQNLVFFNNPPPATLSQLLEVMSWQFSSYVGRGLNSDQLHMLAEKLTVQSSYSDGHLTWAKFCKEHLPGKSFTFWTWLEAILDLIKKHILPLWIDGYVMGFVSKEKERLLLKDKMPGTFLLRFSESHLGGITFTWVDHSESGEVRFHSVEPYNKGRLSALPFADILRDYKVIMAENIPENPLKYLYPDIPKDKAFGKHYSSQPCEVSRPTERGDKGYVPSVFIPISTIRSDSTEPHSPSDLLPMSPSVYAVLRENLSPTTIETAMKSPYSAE
Description: (§1) Fluorescence polarization assays
(§2) Competitive fluorescence polarization assays, which measure the abilities of test compounds (dissolved in DMSO) to displace a fluorescent-labeled peptide from the SH2 domain of a STAT protein, were carried out essentially as described. Proteins were used at the following final concentrations: 23 nM or 28 nM for STAT4; between 56 nM and 91 nM for STAT1; 107 nM or 110 nM for STAT3; between 131 nM and 177 nM for STAT5a; between 62 nM and 85 nM for STAT5b; and 101 nM or 106 nM for STAT6. These concentrations represent the approximate […]
(§3) dissociation constant for peptide binding of the respective protein batches used in the assays.
(§4) The following peptides were used: 5-carboxyfluorescein-GpYLPQNID-OH for STAT4; 5-carboxyfluorescein-GpYDKPHVL for STAT1; 5-carboxyfluorescein-GpYLPQTV-NH2 for STAT3; 5-carboxyfluorescein-GpYLVLDKW for STAT5a/b, and 5-carboxyfluorescein- […]
(§5) Gp[…]-OH for STAT6. All peptides were used at a final concentration of 10 nM. The buffer consisted of 10 mM Tris (pH 8.0), 50 mM NaCl, 1 mM EDTA, 1 mM DTT, 0 .1 % Nonidet P-40 substitute, and 2 % DMSO. After incubation of protein and test compound for 1 h at room temperature, the fluorescent -labeled peptide was added. Samples were transferred to 384 - well microtiter plates and fluorescence polarization was read after an additional 60 min of incubation time. Measurements were performed in triplicate. Percent binding was calculated based on a logarithmic curve fit using OriginPro 8G software. IC 50 values were converted to Ki-values via the published equation[3] using the corresponding Excel spread sheet […]
(§6) https://websites.umich.edu/~shaomengwanglab/software/calc_ki/index.html .
(§7) Error bars represent standard deviations. Ligand efficiencies (LE) were calculated by the formula LE = -1,37 x log Ki / number of non-hydrogen atoms.[4] […]

STAT1 = molecular target: T2, STAT1 (Homo sapiens, UniProt P42224); assay: Competitive fluorescence polarization (FP) assay, STAT1 SH2 domain; type: binding; conditions: for IC50: mean ± SD, n = 3; for Ki: tracer 5-carboxyfluorescein-GpYDKPHVL, Ki derived from IC50
T2 sequence (P42224 1-750): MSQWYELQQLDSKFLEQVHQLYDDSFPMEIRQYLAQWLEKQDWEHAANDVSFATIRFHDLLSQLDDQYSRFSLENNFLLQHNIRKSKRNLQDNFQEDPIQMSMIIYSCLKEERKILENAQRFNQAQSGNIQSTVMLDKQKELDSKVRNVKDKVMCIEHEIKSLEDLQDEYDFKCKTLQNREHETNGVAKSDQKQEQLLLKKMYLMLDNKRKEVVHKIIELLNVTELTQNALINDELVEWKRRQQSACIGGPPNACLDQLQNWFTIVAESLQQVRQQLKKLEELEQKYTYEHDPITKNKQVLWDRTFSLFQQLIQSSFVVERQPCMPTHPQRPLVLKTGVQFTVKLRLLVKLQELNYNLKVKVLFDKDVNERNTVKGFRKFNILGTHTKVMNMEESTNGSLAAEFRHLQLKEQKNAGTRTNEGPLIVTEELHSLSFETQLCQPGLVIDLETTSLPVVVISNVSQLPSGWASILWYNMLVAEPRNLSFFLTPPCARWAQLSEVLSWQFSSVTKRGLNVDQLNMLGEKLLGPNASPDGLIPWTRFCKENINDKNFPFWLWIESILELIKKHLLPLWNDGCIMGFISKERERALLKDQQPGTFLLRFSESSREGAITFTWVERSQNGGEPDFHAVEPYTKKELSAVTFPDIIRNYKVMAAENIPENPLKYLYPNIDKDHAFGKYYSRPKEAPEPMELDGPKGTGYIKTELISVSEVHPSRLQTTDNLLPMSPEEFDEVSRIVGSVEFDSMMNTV
Description: as §1, §2, §3, §4, §5, §6, §7

| SMILES | Ki (STAT4) [µM] | IC50 (STAT4) [µM] | selectivity for STAT4 over the SH2 domain of STAT5a (STAT4; FP assays, Ki ratio) [fold] | selectivity for STAT4 over the SH2 domain of STAT5b (STAT4; FP assays, Ki ratio) [fold] | selectivity for STAT4 over the SH2 domains of STAT1, STAT3, and STAT6 (STAT4; FP assays, Ki ratio) | IC50 (STAT1) [µM] | Ki (STAT1) [µM] | selectivity for STAT4 over other STAT proteins (STAT4; FP assays) | ligand efficiency (STAT4; LE = -1,37 x log Ki / number of non-hydrogen atoms, STAT4 Ki) [kcal/mol] |
| --- | --- | --- | --- | --- | --- | --- | --- | --- | --- |
| O=P(O)(O)Oc1ccc(-c2ccccc2)cc1 [Compound 1, para‐biphenyl phosphate] | 1.1 ± 0.1 | 2.3 ± 0.2 | ~20 | ~40 | 7–8 fold | 16 ± 3 | 8.1 ± 1.4 |  |  |
| O=P(O)(O)Oc1ccc(-c2ccc3ccccc3c2)cc1 [Compound 6g] | 0.44 ± 0.09 | 0.95 ± 0.19 |  |  |  | 22 ± 2 | 11 ± 1 |  |  |
| O=P(O)(O)Oc1ccc(-c2ccccc2)cc1F [Compound 6h] | 0.56 ± 0.08 | 1.2 ± 0.2 |  |  |  | 13 ± 1 | 6.3 ± 0.6 |  |  |
| O=P(O)(O)Oc1ccc(-c2ccc3ccccc3c2)cc1F [Compound 6m] | 0.35 ± 0.01 | 0.76 ± 0.01 |  |  |  | 7.8 ± 0.6 | 3.8 ± 0.3 | 10–70 fold |  |
| O=P(O)(O)C(F)(F)c1ccc(-c2ccc3ccccc3c2)cc1F [Compound 8a] | 4 ± 0.5 | 8.5 ± 1 |  |  |  | 63 ± 3 | 36 ± 2 |  |  |
| Cc1cc(-c2ccc(C(F)(F)P(=O)(O)O)c(F)c2)cs1 [Compound 8k] | 1.7 ± 0.2 | 3.7 ± 0.4 |  |  |  | 48 ± 4 | 24 ± 2 |  | 0.39 |
